Experimental data taken from patent US20230210829A1, “REJUVENATION OF AGED TISSUES BY INHIBITION OF THE PGE2 DEGRADING ENZYME, 15-PGDH” (The Board of Trustees of the Leland Stanford Junior …, priority 2020, published 2023).

Tests used:
aged mice [1] = experiment: Luminex assay of mouse sera (serum cytokine levels) in aged mice treated with 15-PGDH inhibitor; assay type: in vivo; settings: aged (25 months) mice, 4 weeks intraperitoneal administration
From the text: FIGS. 4A-4H. Inhibition of 15-PGDH rejuvenates systemic cytokine levels. Serum levels of (FIG. 4A) interleukin-10 (IL10), (FIG. 4B) interleukin-6 (IL6), (FIG. 4C) betacellulin (BTC), (FIG. 4D) granulocyte-macrophage colony-stimulating factor (GM-CSF), (FIG. 4E) interleukin-13 (IL13), (FIG. 4F) tumor necrosis factor-alpha (TNFA), (FIG. 4G) interleukin-1 beta (IL1B), and (FIG. 4H) interleukin-22 (IL22) measured in young vehicle (4 months), young SW033291 (4 months), aged vehicle treated (25 months), and aged SW033291 treated (25 months) mice by Luminex bead arrays. MFI—Mean fluorescence intensity.
(§1) All experiments and protocols were performed in compliance with the institutional guidelines of Stanford University and Administrative Panel on Laboratory Animal Care (APLAC). Aged (>24 mo.) mice C57BL/6 were obtained from the US National Institute on Aging (NIA) for aged muscle studies, and young (2-4 mo.) wild-type C57BL/6 mice from Jackson Laboratory.
Aging is associated with an altered state of inflammation and is associated with changes in circulating levels of various cytokines. Altered cytokine signaling in aging can initiate a cascade of dysregulated signaling pathways that negatively impact the function of various organs. Age-dysregulated cytokine signaling has been implicated in increased mortality, frailty, cellular senescence, vascular aging, cognitive decline, atherosclerosis, risk of osteoarthritis, and loss of bone mineral density in aging. […] Furthermore, a reduction of IL6 is associated with reduced adipose tissue inflammation and reduced cellular senescence. […] Increased IL22 levels are anti-inflammatory in colonic tissue and are beneficial for inflammatory bowel disease and colitis. […] This systemic effect in turn ameliorates the function of other tissues.

aged mice [2] = experiment: Hematoxylin and Eosin (H&E) histological evaluation of spleen in aged mice treated with 15-PGDH inhibitor; assay type: in vivo; settings: aged (25 months) mice, intraperitoneally for 4 weeks, H&E staining
Protocol: FIG. 3. […] Hematoxylin and Eosin (H&E) staining of spleen in young vehicle treated (4 months), aged vehicle treated (25 months) and aged SW033291 treated (25 months) intraperitoneally for 4 weeks.
as §1

CCCC[S+]([O-])c1sc2nc(-c3cccs3)cc(-c3ccccc3)c2c1N (stereo not drawn) [SW033291, 2-(butylsulfinyl)-4-phenyl-6-(thiophen-2-yl)thieno[2,3-b]pyridin-3-amine]
serum level of interleukin-10 (IL10) (aged mice [1]; FIG. 4A): restored to levels similar to those of young mice
serum level of interleukin-6 (IL6) (aged mice [1]; FIG. 4B): restored to levels similar to those of young mice
serum level of betacellulin (BTC) (aged mice [1]; FIG. 4C): restored to levels similar to those of young mice
serum level of granulocyte-macrophage colony-stimulating factor (GM-CSF) (aged mice [1]; FIG. 4D): restored to levels similar to those of young mice
serum level of interleukin-13 (IL13) (aged mice [1]; FIG. 4E): restored to levels similar to those of young mice
serum level of tumor necrosis factor-alpha (TNFA) (aged mice [1]; FIG. 4F): further increased
serum level of interleukin-1 beta (IL1B) (aged mice [1]; FIG. 4G): further increased
serum level of interleukin-22 (IL22) (aged mice [1]; FIG. 4H): further increased
cell density within the splenic follicles (aged mice [2]): increased cell density within the follicles
follicular structure of spleen (aged mice [2]): restored
marginal zone of spleen (aged mice [2]): reestablished
splenic morphology (aged mice [2]; vs aged vehicle and young): rejuvenated the splenic morphology
